Test systems include MDA-N; LXFL 529; DMS-114; DMS-273; T47D; RXF 631; DLD-1; XF498; HOP-18.
Common to all, as to assay: NCI tumour cell line growth inhibition, 48 h

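Compound exposure: 48 hours, 5 concentrations, 96-well plates. GI50 is the concentration that inhibits growth by half.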 The source made the active and inactive calls. Rule as the data show it: active = GI50 up to about 1.1 µM and inactive = higher.

As for `COc1ccc(OC)c2c(=S)c3ccccc3[nH]c12`, the GI50 in the assay on MDA-N was > 100 µM (inactive); in the assay with LXFL 529, 56 µM (inactive); in the assay on DMS-114 it was 32 µM (inactive); in the assay with DMS-273, > 82.8 µM (inactive); in the assay on T47D, > 100 µM (inactive); with RXF 631 it was 41.5 µM (inactive). Also, the GI50 in the assay on DLD-1 and with XF498 was > 100 µM (inactive) in each case.
For `Cc1ccc(NC(=O)CC2Sc3ccccc3NC2=O)cc1C` (centres undefined), the GI50 is > 100 µM (inactive) in the assay with HOP-18; 49 µM (inactive) in the assay on LXFL 529; 41.9 µM (inactive) with DMS-114; 85.7 µM (inactive) with DMS-273; > 100 µM (inactive) in the assay with DLD-1; > 100 µM (inactive) with XF498.
Consider `Cc1ccc(NC(=O)CCC(=O)C(C#N)c2ccccc2)cc1C` (centres undefined), for which the GI50 in the assay on HOP-18, in the assay on LXFL 529, in the assay on DMS-114, in the assay on DMS-273, in the assay on RXF 631 and in the assay on DLD-1 was > 100 µM (inactive) each time. Further, in the assay on XF498, the GI50 was > 100 µM (inactive).
In the case of `C#CC1(O)CC(c2ccccc2)N(C)C(c2ccccc2)C1` (centres undefined), the GI50 in the assay with LXFL 529, in the assay with DMS-114, in the assay on DMS-273 and with RXF 631 was > 100 µM (inactive) each time.
Take `O=C(CCN1CCN(c2cccc(Cl)c2)CC1)N1CCc2c([nH]c3ccccc23)C1c1cccnc1` (centres undefined): the GI50 in the assay with HOP-18 is 12.8 µM (inactive); with LXFL 529, 4.19 µM (inactive); in the assay on DMS-114, 6.65 µM (inactive); in the assay with DMS-273, 8.28 µM (inactive); in the assay on RXF 631, 2.59 µM (inactive); in the assay with DLD-1, 5.32 µM (inactive). Besides, the GI50 with XF498 is 3.27 µM (inactive).
For the compound `Nc1c(Cl)ncnc1NCCCNc1ncnc(Cl)c1N`, the GI50 in the assay on HOP-18, in the assay with LXFL 529, in the assay on DMS-114, with DMS-273, in the assay on DLD-1 and in the assay with XF498 was > 100 µM (inactive) in each case.
`O=S1(=O)OCCOS(=O)(=O)C1Br`: the GI50 in the assay with LXFL 529, in the assay with DMS-114, in the assay with DMS-273, in the assay with RXF 631 and in the assay with DLD-1 was > 100 µM (inactive) throughout.
`COc1cc(C2C(Cl)C(=O)N2n2cnc3ccccc3c2=O)cc(OC)c1OC` (centres undefined): the GI50 in the assay on HOP-18 is > 100 µM (inactive); in the assay with LXFL 529, > 100 µM (inactive); with DMS-114, 43.4 µM (inactive); in the assay with DMS-273, 41 µM (inactive); with DLD-1, > 100 µM (inactive); in the assay on XF498, > 100 µM (inactive).
Turning to `OC(CCNC12CC3CC(CC(C3)C1)C2)c1ccccc1` (centres undefined), the GI50 is > 100 µM (inactive) with HOP-18; > 100 µM (inactive) with LXFL 529; 57.9 µM (inactive) in the assay with DMS-114; 80.4 µM (inactive) in the assay with DMS-273; > 100 µM (inactive) in the assay on RXF 631; 99.8 µM (inactive) in the assay on DLD-1. Further, the GI50 in the assay with XF498 is > 100 µM (inactive).
For `O=C1CC2CCCCC2=C1O` (centres undefined), the GI50 with LXFL 529, in the assay on DMS-114, in the assay with DMS-273, with RXF 631, in the assay with DLD-1 and in the assay on XF498 was > 100 µM (inactive) each time.
As to `C#CC[C@]12CC(=O)CC[C@H]1CC1(C2)OCCO1`, the GI50 with HOP-18, in the assay on LXFL 529, in the assay on DMS-114, in the assay on DMS-273, in the assay with RXF 631 and in the assay with DLD-1 was > 100 µM (inactive) each time.
On to `COC(=O)[C@]12CC=C3O[C@@H]4OC5(CCCCC5)O[C@@H]4[C@H]3C1C(=O)C=CC2=O` (some centres undefined), for which the GI50 with MDA-N is 19.1 µM (inactive); with HOP-18, 18.5 µM (inactive); in the assay with LXFL 529, 9.84 µM (inactive); with DMS-114 it was 17.5 µM (inactive); in the assay with DMS-273, 18.1 µM (inactive); in the assay with T47D it was 17.1 µM (inactive). In addition, the GI50 is 15.5 µM (inactive) in the assay with DLD-1 and 12.6 µM (inactive) with XF498.
On to `Cc1c2cc[n+](C)cc2c(C)c2c1sc1ccccc12`, for which the GI50 in the assay with MDA-N is 2.77 µM (inactive); in the assay with HOP-18, 9.14 µM (inactive); in the assay on LXFL 529, 0.456 µM (active); with DMS-114, 0.395 µM (active); with DMS-273, 0.853 µM (active); in the assay on T47D it was 0.798 µM (active). In addition, the GI50 in the assay on RXF 631 was 0.194 µM (active); with DLD-1, 3.05 µM (inactive); with XF498, 0.564 µM (active).
In the case of `COC(=O)CCC(=O)Nc1ccc(Cl)cc1C`, the GI50 was > 100 µM (inactive) in the assay on HOP-18; 32.1 µM (inactive) with LXFL 529; 0.859 µM (active) in the assay with DMS-114; > 100 µM (inactive) with DMS-273; > 29.9 µM (inactive) with RXF 631; > 100 µM (inactive) in the assay with DLD-1. Besides, the GI50 in the assay on XF498 was 13.5 µM (inactive).
In the case of `Cc1ccc(S(=O)(=O)N/N=c2\c(C)c(C3=NS(=O)(=O)c4cc(S(N)(=O)=O)c(Cl)cc4N3)oc3c(Cl)cc(Cl)cc23)cc1`, the GI50 is 45.3 µM (inactive) in the assay with HOP-18; > 100 µM (inactive) in the assay on LXFL 529; 26.9 µM (inactive) in the assay with DMS-114; 27 µM (inactive) in the assay on DMS-273; 79.1 µM (inactive) in the assay on RXF 631; > 100 µM (inactive) in the assay on DLD-1.
For the compound `CN1C(=O)CCC1(O)C1C=CC=CC1` (centres undefined), the GI50 in the assay with LXFL 529, in the assay on DMS-114, in the assay on DMS-273, in the assay on RXF 631, with DLD-1 and in the assay with XF498 was > 100 µM (inactive) in each case.
Regarding `Cc1ccc(S(=O)(=O)OC2CSSCC2OS(=O)(=O)c2ccc(C)cc2)cc1` (centres undefined), the GI50 is 17.4 µM (inactive) in the assay with HOP-18; 11.4 µM (inactive) in the assay on LXFL 529; 11.9 µM (inactive) in the assay with DMS-114; 10.1 µM (inactive) in the assay on DMS-273; 13.6 µM (inactive) in the assay with RXF 631; 11 µM (inactive) in the assay on DLD-1.
For the compound `N=C(N)SCCc1cn2ccccc2n1`, the GI50 with HOP-18 was > 100 µM (inactive); with DMS-114, > 100 µM (inactive); with DMS-273, > 100 µM (inactive); with DLD-1, 7.03 µM (inactive); with XF498, > 100 µM (inactive).
Regarding `c1ccc2c(c1)[nH]c1c2nc2ncccn21`, the GI50 in the assay on LXFL 529, with DMS-114, with DMS-273, with RXF 631, in the assay with DLD-1 and in the assay on XF498 was > 100 µM (inactive) throughout.
As to `CN(C)C(=S)/N=c1\ssc(=S)n1Cc1ccco1`, the GI50 in the assay with MDA-N was 0.22 µM (active); in the assay on HOP-18, 82.2 µM (inactive); with LXFL 529, 3.48 µM (inactive); in the assay with DMS-114, 1.99 µM (inactive); in the assay with DMS-273 it was 0.587 µM (active); in the assay with T47D it was 0.571 µM (active). Also, the GI50 in the assay with RXF 631 is 4.69 µM (inactive); with DLD-1, 2.86 µM (inactive); in the assay on XF498 it was 4.39 µM (inactive).
Take `COc1cc2c(cc1OC)C(N(C)C)C(c1ccccc1)=C2Cl` (centres undefined): the GI50 is 28.5 µM (inactive) in the assay on HOP-18, 16.4 µM (inactive) with DMS-273, 15.7 µM (inactive) with RXF 631 and 15.1 µM (inactive) in the assay with DLD-1.
Consider `COc1cc(CNc2ccc(C(C)C)cc2)cc(OC)c1OC`, for which the GI50 in the assay on HOP-18 was 34.1 µM (inactive); in the assay with LXFL 529 it was 18.9 µM (inactive); in the assay with DMS-114, 24.9 µM (inactive); in the assay on DLD-1, 24 µM (inactive); in the assay with XF498 it was 32.3 µM (inactive).

For the origin of these results see ChEMBL document CHEMBL1201862, “PubChem BioAssay data set” (2004).
